# Measured values from patent US8658659B2, “Substituted oxazole derivatives and their use as tyrosine kinase inhibitors” (AB Science, priority 2005, dated 2014).
row,Structure (SMILES),melting point
1,"Cc1ccc(Nc2nc3ccc(F)cc3o2)cc1Nc1ncc(-c2ccncc2)o1 [Compound 010, N1-(6-Fluoro-benzooxazol-2-yl)-4-methyl-N3-(5-pyridin-4-yl-oxazol-2-yl)-benzene-1,3-diamine]",260 °C
2,"Cc1ccc(C(=O)CCc2ccccc2)cc1Nc1ncc(-c2ccc(C#N)cc2)o1 [Compound 020, 4-{2-[2-Methyl-5-(3-phenyl-propionyl)-phenylamino]-oxazol-5-yl}-benzonitrile]",138 °C
3,"CC(=O)c1ccc(C)c(Nc2ncc(-c3ccc(C#N)cc3)o2)c1 [Compound 018, 4-[2-(5-Acetyl-2-methyl-phenylamino)-oxazol-5-yl]-benzonitrile]",240 °C
4,"Cc1ccc(Nc2nc3cc(F)ccc3o2)cc1Nc1ncc(-c2ccncc2)o1 [Compound 009, N1-(5-Fluoro-benzooxazol-2-yl)-4-methyl-N3-(5-pyridin-4-yl-oxazol-2-yl)-benzene-1,3-diamine]",170 °C
5,"Cc1ccc(Nc2nc3cc(Cl)ccc3o2)cc1Nc1ncc(-c2ccncc2)o1 [Compound 005, N1-(5-Chloro-benzooxazol-2-yl)-4-methyl-N3-(5-pyridin-4-yl-oxazol-2-yl)-benzene-1,3-diamine]",229 °C
6,"Cc1ccc(N(C)CC(=O)c2ccc(F)cc2)cc1Nc1ncc(-c2ccncc2)o1 [Compound 024, 1-(4-Fluoro-phenyl)-2-{methyl-[4-methyl-3-(5-pyridin-4-yl-oxazol-2-ylamino)-phenyl]-amino}-ethanone]",230 °C
7,"Cc1ccc(N2CCN(c3cccc(C#N)c3)C2=O)cc1Nc1ncc(-c2ccc(C#N)cc2)o1 [Compound 012, 4-(2-{5-[3-(3-cyano-phenyl)-2-oxo-imidazolidin-1-yl]-2-methyl-phenylamino}-oxazol-5-yl)-benzonitrile]",> 260 °C
8,"Cc1ccc(Nc2nc3ccc(Cl)cc3o2)cc1Nc1ncc(-c2ccncc2)o1 [Compound 006, N1-(6-Chloro-benzooxazol-2-yl)-4-methyl-N3-(5-pyridin-4-yl-oxazol-2-yl)-benzene-1,3-diamine]",> 260 °C
9,"Cc1ccc(N(C)CC(=O)c2ccc(C#N)cc2)cc1Nc1ncc(-c2ccncc2)o1 [Compound 025, 4-({Methyl-[4-methyl-3-(5-pyridin-4-yl-oxazol-2-ylamino)-phenyl]-amino}-acetyl)-benzonitrile]",218 °C
10,"Cc1ccc(NCC(=O)c2ccc(F)cc2)cc1Nc1ncc(-c2ccncc2)o1 [Compound 023, 1-(4-Fluoro-phenyl)-2-[4-methyl-3-(5-pyridin-4-yl-oxazol-2-ylamino)-phenylamino]-ethanone]",202 °C
11,"Cc1ccc(N2CCN(c3cccc(C(F)(F)F)c3)C2=O)cc1Nc1ncc(-c2ccncc2)o1 [Compound 015, 1-[4-Methyl-3-(5-pyridin-4-yl-oxazol-2-ylamino)-phenyl]-3-(3-trifluoromethyl-phenyl)-imidazolidin-2-one]",198 to 200 °C
12,"Cc1ccc(Nc2nc3ccccc3o2)cc1Nc1ncc(-c2ccc(C#N)cc2)o1 [Compound 002, 4-{2-[5-(Benzooxazol-2-ylamino)-2-methyl-phenylamino]-oxazol-5-yl}-benzonitrile]",236 °C
13,"Cc1ccc(Nc2nc3ccccc3s2)cc1Nc1ncc(-c2ccc(C#N)cc2)o1 [Compound 003, 4-{2-[5-(Benzothiazol-2-ylamino)-2-methyl-phenylamino]-oxazol-5-yl}-benzonitrile]",216 to 220 °C
14,"Cc1ccc(NCC(=O)c2ccc(F)cc2)cc1Nc1ncc(-c2ccc(C#N)cc2)o1 [Compound 027, 4-(2-{5-[2-(4-Fluoro-phenyl)-2-oxo-ethylamino]-2-methyl-phenylamino}-oxazol-5-yl)-benzonitrile]",199 °C
15,"Cc1ccc(N2CCN(c3cccc(F)c3)C2=O)cc1Nc1ncc(-c2ccc(C#N)cc2)o1 [Compound 011, 4-(2-{5-[3-(3-Fluoro-phenyl)-2-oxo-imidazolidin-1-yl]-2-methyl-phenylamino}-oxazol-5-yl)-benzonitrile]",221 °C
16,"Cc1ccc(C(=O)CCc2ccc(F)cc2)cc1Nc1ncc(-c2ccc(C#N)cc2)o1 [Compound 019, 4-(2-{5-[3-(4-Fluoro-phenyl)-propionyl]-2-methyl-phenylamino}-oxazol-5-yl)-benzonitrile]",175 °C
17,"Cc1ccc(Nc2nc3ccccc3o2)cc1Nc1ncc(-c2cccnc2)o1 [Compound 004, N1-Benzooxazol-2-yl-4-methyl-N3-(5-pyridin-3-yl-oxazol-2-yl)-benzene-1,3-diamine]",238 °C
18,"Cc1ccc(C(=O)CCc2ccccc2)cc1Nc1ncc(-c2ccncc2)o1 [Compound 017, 1-[4-Methyl-3-(5-pyridin-4-yl-oxazol-2-ylamino)-phenyl]-3-phenyl-propan-1-one]",138 °C
19,"CCS(=O)(=O)c1ccc2oc(Nc3ccc(C)c(Nc4ncc(-c5ccncc5)o4)c3)nc2c1 [Compound 007, N1-(5-Ethanesulfonyl-benzooxazol-2-yl)-4-methyl-N3-(5-pyridin-4-yl-oxazol-2-yl)-benzene-1,3-diamine]",252 °C
20,"Cc1ccc(C(=O)CCc2cccc(F)c2)cc1Nc1ncc(-c2ccc(C#N)cc2)o1 [Compound 021, 4-(2-{5-[3-(3-Fluoro-phenyl)-propionyl]-2-methyl-phenylamino}-oxazol-5-yl)-benzonitrile]",157 °C
21,"Cc1ccc(N2CCN(c3cccc(F)c3)C2=O)cc1Nc1ncc(-c2ccc(C(N)=O)cc2)o1 [Compound 013, 4-(2-{5-[3-(3-Fluoro-phenyl)-2-oxo-imidazolidin-1-yl]-2-methyl-phenylamino}-oxazol-5-yl)-benzamide]",> 260 °C
22,"Cc1ccc(NS(=O)(=O)Cc2ccccc2)cc1Nc1ncc(-c2ccncc2)o1 [Compound 001, N-[4-Methyl-3-(5-pyridin-4-yl-oxazol-2-ylamino)-phenyl]-C-phenyl-methane sulfonamide]",258 °C
23,"Cc1ccc(NCC(=O)c2ccccc2)cc1Nc1ncc(-c2ccncc2)o1 [Compound 026, 2-[4-Methyl-3-(5-pyridin-4-yl-oxazol-2-ylamino)-phenylamino]-1-phenyl-ethanone]",152 °C
24,"CC(=O)c1ccc(C)c(Nc2ncc(-c3ccc(C(N)=O)cc3)o2)c1 [Compound 022, 4-[2-(5-Acetyl-2-methyl-phenylamino)-oxazol-5-yl]-benzamide]",> 260 °C
